Non-standard residues stand in square brackets, D forms with d. Residues, ends and D or L forms follow the SMILES beside them. *: point of attachment. C16 alkyl = N-terminal C16 alkyl tail, CCCCCCCCCCCCCCCC*; Palmitoyl = CCCCCCCCCCCCCCCC(=O)*; pS = N[C@@H](COP(=O)(O)O)C(=O)O
Key:
[1] = Self-assembly on drying onto a surface; type: physicochemical; details: dissolved at neutral / physiological pH (pH 8), dried, negative stain TEM
Text: Such a facile approach allows this novel material to be formed in a pH independent manner, as may be important in applications that are particularly sensitive to changes in pH, including the delivery of cells in conjunction with the gelling system and generally avoiding contact between tissues and materials at non-physiological pH.
Illustrating another gelation factor of this invention, self-assembly can occur by simply taking a PA (such as PA 17, Table 2) or a combination of PAs dissolved in water at pH 8 and placing it on a surface which is allowed to dry (for example, directly on a carbon coated TEM grid). […] (See, FIG. 11.)

[2] = Solubility, pH-dependent precipitation and gelation in water; type: physicochemical
Procedure: (§1) After synthesis (see, example 10), the PA of FIG. 1 (characterized by ^1H NMR and matrix-assisted laser desorption/ionization time-of-flight mass spectrometry (MALDI-TOF MS): matrix ion [M−H]^−1=1333) was treated with dithiothreitol (DTT) at a pH of 8 to reduce all cysteine residues to free thiols. […] However, upon acidification of the solution below pH 4 the material rapidly becomes insoluble. Solutions more concentrated than 2.5 mg/ml form birefringent gels in water that are self-supporting upon inversion of the container. […] Negatives were digitized in the Umax PowerLook scanner with resolution 1200 dpi. The average thickness of the PA fibers was determined by two different procedures. First the Fourier transform of the images and following measurements of the distances between the peaks were performed in the NIH Image […] program. The second approach applied was averaging technique based on the cross-correlation method, widely used in single particle reconstruction using the EMAN […] program. For each data set 1200-1300 individual boxes were selected.
Several PAs with basic amino acids that can self-assemble at alkaline pH and also mixed systems, in which oppositely charged PAs self-assemble at neutral pH, were prepared. For this purpose PA compounds 22-25 were prepared by standard solid phase peptide synthesis followed by alkylation with the C16 fatty acid, palmitic acid. See Table 2, FIG. 10b (PA 22) and FIGS. 10c-e (PAs 23-25). The peptides thus prepared were characterized by electrospray mass spectroscopy and found to correspond to their respective expected masses.
Solutions of each compound of example 6 were prepared at a concentration of 0.1 mg/m1 at neutral pH.

[3] = TEM of self-assembled nanofibers (fiber formation and diameter); type: physicochemical
Procedure: as §1, with “selected. […]” for “selected.”
Samples of the peptide-amphiphiles were prepared for TEM analysis in two different ways. In some cases a small sample of the gel, prepared in bulk as described above, was smeared onto a holey carbon coated TEM grid (Quantifoil). […]

[4] = Mineralization of PA nanofibers with CaCl2 and Na2HPO4 on TEM grid; details: 30 minutes of incubation with calcium and phosphate
Procedure: To investigate the mineralization properties of PA nanofibers of this invention, the material was assembled and mineralized directly on a holey carbon coated TEM grid—to allow study of the dynamics of the mineralization process while minimizing artifacts of TEM sample preparation. To prepare samples, a drop of aqueous PA (1 mg/ml) was mounted on the holey grid and the self-assembly of the PA was induced in an atmosphere of HCl vapor. The grids were immersed in aqueous iodine to oxidize the cysteine thiol groups to disulfides. After rinsing with distilled water, the PA coated grids were treated with 5 μl of 10 mM CaCl2 on one side and 5 μl of 5 mM Na2HPO4 on the other side. The two solutions are able to mix only by passing through the holes in the carbon support.
In a second control, a PA was prepared in which phosphoserine was replaced by serine and treated as above with calcium and phosphate.

| Compound | self-assembly on drying from solution onto a surface [1] | pH below which the material rapidly becomes insoluble on acidification ([2]; acidification of the aqueous solution) | concentration above which solutions form self-supporting birefringent gels in water ([2]; after acidification) | solubility in water ([2]; pH of 8, DTT-reduced) | fiber diameter, positively and negatively stained dried fibers ([3]; TEM, dried) | fiber diameter, cryo-TEM ([3]; native hydrated gel) | mineral observed on the fibers by TEM [4] |
| --- | --- | --- | --- | --- | --- | --- | --- |
| 17 ({C16 alkyl}-CCCCGGG[pS]RGD-OH; cysteine pairing not given here) [compound 17] | formation of nanofibers | – | – | – | – | – | – |
| CCCCCCCCCCCCCCCC(=O)N[C@@H](CS)C(=O)N[C@@H](CS)C(=O)N[C@@H](CS)C(=O)N[C@@H](CS)C(=O)NCC(=O)NCC(=O)NCC(=O)N[C@@H](COP(=O)(O)O)C(=O)N[C@@H](CCCNC(=N)N)C(=O)NCC(=O)N[C@@H](CC(=O)O)C(=O)O [PA 26, Alkyl*-C4G3S^(P)RGD-COOH] (Palmitoyl-CCCCGGG[pS]RGD-OH) | – | < 4 pH | > 2500 µg/mL | > 50 mg/mL | 6.0±1 nm | 7.6±1 nm | heavy crystallization |
